Results: patent publication US12083101B2, “Biaryl derivatives as YAP/TAZ-TEAD protein-protein interaction inhibitors” (Novartis AG, priority 2020, dated 2024)

Biological target: Avi-humanTEAD4 217-434 / Cy5 labeled humanYAP 60-100 (Homo sapiens (Human), UniProt Q15561)
Assay: TR-FRET YAP-TEAD4 in-vitro biochemical assay
Type: binding
Details: 1 nM Avi-humanTEAD4 217-434, 20 nM Cy5-humanYAP 60-100, 1 h room temperature
Experimental: N-terminus Cy5 labeled humanYAP^60-100 (20 nM) was then added to this preparation. Compounds were dissolved at 10 mM in 100% DMSO and serial dilutions were made in 100% DMSO. The diluted compound solutions were incubated in white 384-well plates (Greiner Bio-One) for 1 h at room temperature with the above described mix. The final DMSO concentration present in the assay was 1%. […] The IC50 values were estimated by fitting the data by nonlinear fit regression (GraphPad Prism).

Sequence of Avi-humanTEAD4 217-434 / Cy5 labeled humanYAP 60-100 (Q15561 217-434): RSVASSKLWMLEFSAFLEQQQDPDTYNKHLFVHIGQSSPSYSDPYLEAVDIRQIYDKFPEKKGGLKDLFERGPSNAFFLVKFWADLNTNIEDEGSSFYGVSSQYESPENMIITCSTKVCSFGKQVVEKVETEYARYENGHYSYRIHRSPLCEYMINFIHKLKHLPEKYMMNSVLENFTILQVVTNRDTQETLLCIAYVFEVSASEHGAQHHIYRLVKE

Point of comparison: CNC[C@@]1(c2ccccc2)Cc2c(cc(F)c(Cl)c2-c2c(C(N)=O)ccc(OC)c2F)O1 (atropisomer, axis not shown) [Example 46, 2-((2S,4S)-5-Chloro-6-fluoro-2-((methylamino)methyl)-2-phenyl-2,3-dihydrobenzofuran-4-yl)-3-fluoro-4-methoxybenzamide], IC50 3 nM. Against it:
- NC[C@@]1(c2ccccc2)Cc2c(cc(F)c(Cl)c2-c2c(C(N)=O)ccc(OCCC(F)F)c2F)O1 (atropisomer, axis not shown) [Example 41, 2-((2S,4S)-2-(aminomethyl)-5-chloro-6-fluoro-2-phenyl-2,3-dihydrobenzofuran-4-yl)-4-(3,3-difluoropropoxy)-3-fluorobenzamide] — 30-fold higher, 89 nM
- CNC(=O)c1cnc(OCCO)c(F)c1-c1c(Cl)c(F)cc2c1C[C@@](CN)(c1ccccc1)O2 (atropisomer, axis not shown) [Example 45, 4-((2S,4S)-2-(Aminomethyl)-5-chloro-6-fluoro-2-phenyl-2,3-dihydrobenzofuran-4-yl)-5-fluoro-6-(2-hydroxyethoxy)-N-methylnicotinamide] — 3.3-fold higher, 10 nM
- CNC[C@@]1(c2ccccc2)Cc2c(cc(F)c(Cl)c2-c2c(C(N)=O)cnc(OCCO)c2F)O1 (atropisomer, axis not shown) [Example 49, 4-((2S,4S)-5-Chloro-6-fluoro-2-((methylamino)methyl)-2-phenyl-2,3-dihydrobenzofuran-4-yl)-5-fluoro-6-(2-hydroxyethoxy)nicotinamide] — 1.7-fold higher, 5 nM
- NC(=O)c1ccc(OC(F)F)c(F)c1-c1c(Cl)c(F)cc2c1C[C@@](CNCC1CC1)(c1ccccc1)O2 (atropisomer, axis not shown) [Example 50, 2-((2S,4S)-5-Chloro-2-(((cyclopropylmethyl)amino)methyl)-6-fluoro-2-phenyl-2,3-dihydrobenzofuran-4-yl)-4-(difluoromethoxy)-3-fluorobenzamide] — 10-fold higher, 30 nM
- CNC[C@@]1(c2ccccc2)Cc2c(cc(F)c(Cl)c2-c2c(C(=O)NC)cnc(OCCO)c2F)O1 (atropisomer, axis not shown) [Example 53, 4-((2S,4S)-5-chloro-6-fluoro-2-((methylamino)methyl)-2-phenyl-2,3-dihydrobenzofuran-4-yl)-5-fluoro-6-(2-hydroxyethoxy)-N-methylnicotinamide] — 2-fold higher, 6 nM
- CN(C)C(=O)CN1CCC(NC[C@@]2(c3ccccc3)Cc3c(cc(F)c(Cl)c3-c3c(C(N)=O)ccc(OC(F)F)c3F)O2)CC1 (atropisomer, axis not shown) [Example 60, 2-((2S,4S)-5-chloro-2-(((1-(2-(dimethylamino)-2-oxoethyl)piperidin-4-yl)amino)methyl)-6-fluoro-2-phenyl-2,3-dihydrobenzofuran-4-yl)-4-(difluoromethoxy)-3-fluorobenzamide] — 6.7-fold higher, 20 nM
- CS(=O)(=O)N1CCC(NC[C@@]2(c3ccccc3)Cc3c(cc(F)c(Cl)c3-c3c(C(N)=O)ccc(OC(F)F)c3F)O2)CC1 (atropisomer, axis not shown) [Example 63, 2-((2S,4S)-5-chloro-6-fluoro-2-(((1-(methylsulfonyl)piperidin-4-yl)amino)methyl)-2-phenyl-2,3-dihydrobenzofuran-4-yl)-4-(difluoromethoxy)-3-fluorobenzamide] — 23-fold higher, 69 nM
- C[C@@H]1C[C@H](NC[C@@]2(c3ccccc3)Cc3c(cc(F)c(Cl)c3-c3c(C(N)=O)ccc(OCCO)c3F)O2)C[C@H](C)O1 (atropisomer, axis not shown) [Example 65a, 2-((2S,4S)-5-chloro-2-((((2R,4r,6S)-2,6-dimethyltetrahydro-2H-pyran-4-yl)amino)methyl)-6-fluoro-2-phenyl-2,3-dihydrobenzofuran-4-yl)-3-fluoro-4-(2-hydroxyethoxy)benzamide] — within 1.5-fold, 4 nM
